Legend:
Malassezia restricta = experiment: Antifungal inhibition test on agar (Malassezia suspension, growth scored against control); format: cell-based; set-up: key to inhibition score (density of the culture at the surface of the agar vs growth control): 3: No growth; 2: Growth < in the control dish; 1: Growth < in the control dish; 0: Growth comparable to the control dish; conditions: positive reference 1% zinc pyrithione
Protocol: (§1) The test product is brought into contact with the Malassezia suspension. The mixture is deposited at the surface of agar medium. It is spread and the excess is recovered before incubation. It is incubated for at least 5 days at 30° C.
(§2) The products are placed in solution in liquid modified Leeming and Notman medium (LNm) and the tests are carried out in duplicate. The complete culture is at 7.5 g/l or 150 g/l (concentrated version) on a dry matter basis.
(§3) The complete culture was tested at 10% (for the concentration at 7.5 g/l) and at 1% (for the concentration at 150 g/l).
(§4) The positive reference is 1% zinc pyrithione.
(§5) The solutions of the products are twice as concentrated in order to take into account the dilution to ½ during the bringing into contact with the Malassezia suspension.
(§6) The Malassezia globosa and restricta strains were received on agar slopes and were subcultured and incubated at 30° C. until the tests.
(§7) The suspensions are prepared in 15 ml of a buffered solution (ref AEB611294, AES).
(§8) The density of the suspensions is taken at 550 nm.
(§9) The antifungal effect of the reference product is evaluated via the absence of growth of the Malassezia strain tested. This inhibition is evaluated relative to the growth control.
(§10) The inhibitions are scored from 3 to 0 via assessment of the density of the culture at the surface of the agar, in comparison with the growth control for the strain.

Malassezia globosa = experiment: as above; format: cell-based; set-up: key to inhibition score (density of the culture at the surface of the agar vs growth control): 3: No growth; 2: Growth < in the control dish; 1: Growth < in the control dish; 0: Growth comparable to the control dish; conditions: positive reference 1% zinc pyrithione
Protocol: as §1, §2, §3, §4, §5, §6, §7, §8, §9, §10

Question: For Zinc pyrithione, which inhibition in words (Malassezia restricta) is on record?
Answer: Total inhibition

Question: And the “inhibition score (density of the culture at the surface of the agar vs growth control)” value (Malassezia restricta; at least 5 days at 30° C.)?
Answer: 3

Question: What about the inhibition in words (Malassezia globosa) of the same substance?
Answer: Total inhibition

Question: And the “inhibition score (density of the culture at the surface of the agar vs growth control)” value (Malassezia globosa; at least 5 days at 30° C.)?
Answer: 3
